Assays:
[1] = biological target: Mcl-1 (Homo sapiens (Human), UniProt Q07820); test: Terbium labeled Mcl-1 HTRF binding assay, displacement of Cy5-labeled BIM BH3 peptide; conditions: Ki=IC50/(1+[L]/Kd), [L]=8 nM, Kd=10 nM; 25 pM Tb-Mcl-1, 8 nM Cy5 Bim peptide, 60 min; read-out: Tb-MCL1 Ki
Description: Terbium labeled Myeloid Cell Leukemia 1(Mcl-1) homogeneous time-resolved fluorescence (HTRF) binding assay utilizing the BIM BH3 peptide (H2N—(C/Cy5Mal) WIAQELRRIGDEFN-OH) as the binding partner for Mcl-1.
This assay evaluated inhibition of the BH3 domain: Mcl-1 interaction by measuring the displacement of Cy5-labeled BIM BH3 peptide (H2N—(C/Cy5Mal) WIAQELRRIGDEFN-OH) in the HTRF assay format.
The following assay and stock buffers were prepared for use in the assay: (a) Stock buffer: 10 mM Tris-HCl, pH=7.5+150 mM NaCl, filtered, sterilized, and stored at 4° C.; and (b) 1× assay buffer, where the following ingredients were added fresh to stock buffer: 2 mM dithiothreitol (DTT), 0.0025% Tween-20, 0.1 mg/mL bovine serum albumin (BSA). The 1× Tb-Mcl-1+Cy5 Bim peptide solution was prepared by diluting the protein stock solution using the 1× assay buffer (b) to 25 pM Tb-Mcl-1 and 8 nM Cy5 Bim peptide.
Using the Acoustic ECHO, 100 nL of 100× test compound(s) were dispensed into individual wells of a white 384-well Perkin Elmer Proxiplate, for a final compound concentration of 1× and final DMSO concentration of 1%. Inhibitor control and neutral control (NC, 100 nL of 100% DMSO) were stamped into columns 23 and 24 of assay plate. Into each well of the plate was then dispensed 10 μL of the 1× Tb-Mcl-1+Cy5 Bim peptide solution. The plate was centrifuged with a cover plate at 1000 rpm for 1 minute, then incubated for 60 minutes at room temperature with plates covered.
The TR-FRET signal was read on an BMG PHERAStar FSX MicroPlate Reader at room temperature using the HTRF optic module (HTRF: excitation: 337 nm, light source: laser, emission A: 665 nm, emission B: 620 nm, integration start: 60 μs, integration time: […]).
The BMG PHERAStar FSX MicroPlate Reader was used to measure fluorescence intensity at two emission wavelengths—665 nm and 620 nm—and report relative fluorescence units (RFU) for both emissions, as well as a ratio of the emissions (665 nm/620 nm)*10,000. The RFU values were normalized to percent inhibition as follows:
% inhibition (((NC−IC)−(compound-IC))/(NC−IC))*100
where IC (inhibitor control, low signal)=mean signal of 1× Tb-MCl-1+Cy5 Bim peptide+inhibitor control or 100% inhibition of Mel-1; NC (neutral control, high signal)=mean signal 1× Tb-MCI-1+Cy5 Bim peptide with DMSO only or 0% inhibition
An 11-point dose response curve was generated to determine IC50 values (using GenData) based on the following equation:
Y=Bottom+(Top-Bottom)/(1+10^((log IC50−X)*HillSlope))
where Y=% inhibition in the presence of X inhibitor concentration; Top=100% inhibition derived from the IC (mean signal of Mcl-1+inhibitor control); Bottom=0% inhibition derived from the NC (mean signal of Mcl-1+DMSO); Hillslope=Hill coefficient; and IC50=concentration of compound with 50% inhibition in relation to top/neutral control (NC).
In this assay [L]=8 nM and Kd=10 nM
Representative compounds of the present invention were tested according to the procedure as described above, with results as listed in the Table below (n.d. means not determined).

[2] = test system: MOLP-8 human multiple myeloma cell line; test: Caspase-Glo 3/7 apoptosis induction assay in MOLP-8 cells; assay type: cell-based; conditions: Homo sapiens, MOLP-8; caspase-3/7 activation, 2 hours incubation at 37° C.; averaged over all runs on all batches; read-out: MOLP8 AC50
Excerpt: MCL-1 is a regulator of apoptosis and is highly over-expressed in tumor cells that escape cell death. The assay evaluates the cellular potency of small-molecule compounds targeting regulators of the apoptosis pathway, primarily MCL-1, Bfl-1, Bcl-2, and other proteins of the Bcl-2 family. Protein-protein inhibitors disrupting the interaction of anti-apoptotic regulators with BH3-domain proteins initiate apoptosis.
The Caspase-Glo® 3/7 Assay is a luminescent assay that measures caspase-3 and -7 activities in purified enzyme preparations or cultures of adherent or suspension cells. The assay provides a proluminescent caspase-3/7 substrate, which contains the tetrapeptide sequence DEVD. This substrate is cleaved to release aminoluciferin, a substrate of luciferase used in the production of light. Addition of the single Caspase-Glo® 3/7 Reagent in an “add-mix-measure” format results in cell lysis, followed by caspase cleavage of the substrate and generation of a “glow-type” luminescent signal.
This assay uses the MOLP-8 human multiple myeloma cell line, which is sensitive to MCL-1 inhibition.
Cell cultures were maintained between 0.2 and 2.0×10^6 cells/mL. The cells were harvested by collection in 50 mL conical tubes. The cells were then pelleted at 500 g for 5 mins before removing supernatant and resuspension in fresh pre-warmed culture medium. The cells were counted and diluted as needed.
The assay reagent was prepared by transferring the buffer solution to the substrate vial and mixing. The solution may be stored for up to 1 week at 4° C. with negligible loss of signal.
Compounds were delivered in assay-ready plates (Proxiplate) and stored at −20° C.
Assays always include 1 reference compound plate containing reference compounds. The plates were spotted with 40 nL of compounds (0.5% DMSO final in cells; serial dilution; 30 μM highest conc. 1/3 dilution, 10 doses, duplicates). The compounds were used at room temperature and 4 μL of pre-warmed media was added to all wells except column 2 and 23. The negative control was prepared by adding 1% DMSO in media. The positive control was prepared by adding the appropriate positive control compound in final concentration of 60 μM in media. The plate was prepared by adding 4 μL negative control to column 23, 4 μL positive control to column 2, and 4 μL cell suspension to all wells in the plate. The plate with cells was then incubated at 37° C. for 2 hours. The assay signal reagent is the Caspase-Glo solution described above, and 8 μL was added to all wells. The plates were then sealed and measured after 30 minutes.
The activity of a test compound was calculated as percent change in apoptosis induction as follows: • LC=median of the Low Control values • =Central Reference in Screener • =DMSO • =0% • HC=Median of the High Control values • =Scale Reference in Screener • =30 μM of positive control • =100% apoptosis induction
% Effect (AC50)=100−((sample-LC)/(HC-LC))*100
% Control=(sample/HC)*100
% Control min=((sample-LC)/(HC-LC))*100
Table: Measured AC50 for Representative Compounds of Formula (I). Averaged values are reported over all runs on all batches of a particular compound.

Sequence of Mcl-1 (Q07820 whole entry): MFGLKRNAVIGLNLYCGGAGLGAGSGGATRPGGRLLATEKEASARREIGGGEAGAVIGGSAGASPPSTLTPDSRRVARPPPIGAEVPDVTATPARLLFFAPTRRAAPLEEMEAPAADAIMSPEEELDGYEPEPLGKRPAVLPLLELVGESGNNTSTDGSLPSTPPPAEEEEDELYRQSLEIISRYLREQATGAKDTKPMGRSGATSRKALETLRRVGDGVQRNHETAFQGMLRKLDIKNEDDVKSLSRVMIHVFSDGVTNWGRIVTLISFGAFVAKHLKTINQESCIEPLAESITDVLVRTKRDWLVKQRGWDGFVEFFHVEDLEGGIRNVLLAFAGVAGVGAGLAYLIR

C[C@@H]1[C@@H](C)C/C=C(\F)C2(COC(C)(C)OC2)N2CC[C@H]2CN2C[C@@]3(CCCc4cc(Cl)ccc43)COc3ccc(cc32)C(=O)NS1(=O)=O [Compound 13]
Ki [1]: 1.77 nM
AC50 [2]: 1110 nM

C[C@H](O)[C@H]1/C(F)=C/C[C@H](C)[C@@H](C)S(=O)(=O)NC(=O)c2ccc3c(c2)N(C[C@@H]2CCN21)C[C@@]1(CCCc2cc(Cl)ccc21)CO3 [Compound 2]
Ki [1]: 0.106 nM
AC50 [2]: 122 nM

C[C@@H]1[C@@H](C)C/C=C(\F)[C@H]([C@@H](C)O)N2CCC[C@H]2CN2C[C@@]3(CCCc4cc(Cl)ccc43)COc3ccc(cc32)C(=O)NS1(=O)=O [Compound 3]
Ki [1]: 1.56 nM
AC50 [2]: 217 nM

COCCOCCN(C)C[C@H](O)[C@H]1/C(F)=C/C[C@H](C)[C@@H](C)S(=O)(=O)NC(=O)c2ccc3c(c2)N(C[C@@H]2CCN21)C[C@@]1(CCCc2cc(Cl)ccc21)CO3 [Compound 30]
Ki [1]: 0.036 nM
AC50 [2]: 944 nM

C[C@@H]1[C@@H](C)C/C=C(\F)[C@H]([C@@H](O)CN2CCOCC2)N2CC[C@H]2CN2C[C@@]3(CCCc4cc(Cl)ccc43)COc3ccc(cc32)C(=O)NS1(=O)=O [Compound 21]
Ki [1]: 0.051 nM
AC50 [2]: 87.9 nM

C[C@@H]1[C@@H](C)C/C=C(\F)[C@H]([C@@H](O)Cn2cccn2)N2CC[C@H]2CN2C[C@@]3(CCCc4cc(Cl)ccc43)COc3ccc(cc32)C(=O)NS1(=O)=O [Compound 19]
Ki [1]: 0.049 nM
AC50 [2]: 126 nM

COCCN(CC1CCOCC1)C[C@H](O)[C@H]1/C(F)=C/C[C@H](C)[C@@H](C)S(=O)(=O)NC(=O)c2ccc3c(c2)N(C[C@@H]2CCN21)C[C@@]1(CCCc2cc(Cl)ccc21)CO3 [Compound 25]
Ki [1]: 0.025 nM
AC50 [2]: 36.6 nM

COC[C@H](OC)[C@@]1(COC)/C(F)=C/C[C@H](C)[C@@H](C)S(=O)(=O)NC(=O)c2ccc3c(c2)N(C[C@@H]2CCN21)C[C@@]1(CCCc2cc(Cl)ccc21)CO3 [Compound 15]
AC50 [2]: 503 nM

COCCN(C)C[C@H](O)[C@H]1/C(F)=C/C[C@H](C)[C@@H](C)S(=O)(=O)NC(=O)c2ccc3c(c2)N(C[C@@H]2CCN21)C[C@@]1(CCCc2cc(Cl)ccc21)CO3 [Compound 29]
Ki [1]: 0.044 nM
AC50 [2]: 385 nM

C[C@@H]1[C@@H](C)C/C=C(\F)[C@H]([C@@H](O)CN2CCOCC2)N2CCC[C@H]2CN2C[C@@]3(CCCc4cc(Cl)ccc43)COc3ccc(cc32)C(=O)NS1(=O)=O [Compound 22]
Ki [1]: 0.08 nM
AC50 [2]: 239 nM

CO[C@H]1COC(C)(C)OC[C@@]12/C(F)=C/C[C@H](C)[C@@H](C)S(=O)(=O)NC(=O)c1ccc3c(c1)N(C[C@@H]1CCCN12)C[C@@]1(CCCc2cc(Cl)ccc21)CO3 [Compound 12]
Ki [1]: 0.359 nM
AC50 [2]: 885 nM

C[C@@H]1[C@@H](C)C/C=C(\F)[C@@]2(COC(C)(C)OC[C@@H]2O)N2CCC[C@H]2CN2C[C@@]3(CCCc4cc(Cl)ccc43)COc3ccc(cc32)C(=O)NS1(=O)=O [Compound 11]
Ki [1]: 0.172 nM
AC50 [2]: 96.5 nM

C[C@@H]1[C@@H](C)C/C=C(\F)[C@H]([C@@H](O)CN(C)CCC2CCOCC2)N2CC[C@H]2CN2C[C@@]3(CCCc4cc(Cl)ccc43)COc3ccc(cc32)C(=O)NS1(=O)=O [Compound 27]
Ki [1]: 0.053 nM
AC50 [2]: 746 nM

C[C@H](O)[C@H]1/C(F)=C/C[C@H](C)[C@@H](C)S(=O)(=O)NC(=O)c2ccc3c(c2)N(C[C@@H]2CCCN21)C[C@@]1(CCCc2cc(Cl)ccc21)CO3 [Compound 4]
Ki [1]: 0.236 nM
AC50 [2]: 238 nM

C[C@@H]1[C@@H](C)C/C=C(\F)[C@H]([C@@H](O)COC2CCOCC2)N2CCC[C@H]2CN2C[C@@]3(CCCc4cc(Cl)ccc43)COc3ccc(cc32)C(=O)NS1(=O)=O [Compound 20]
Ki [1]: 0.052 nM
AC50 [2]: 272 nM

C[C@@H]1[C@@H](C)C/C=C(\F)[C@](CO)([C@@H]2COC(C)(C)O2)N2CC[C@H]2CN2C[C@@]3(CCCc4cc(Cl)ccc43)COc3ccc(cc32)C(=O)NS1(=O)=O [Compound 10]
AC50 [2]: 553 nM

Source: patent US20240083890A1, “MACROCYCLIC BRANCHED 3-FLUORO-BUT-3-ENAMIDES AS INHIBITORS OF MCL-1” (JANSSEN PHARMACEUTICA NV, priority 2020, published 2024)
